Experiments:
[1] = system: peritoneal macrophages; assay: TNF-á production by peritoneal macrophages stimulated with lipopeptide; assay type: cell-based, mouse; conditions: 24 hours, various concentrations, FIG. 4
Experimental: (§1) Each of wild-type (wild-type), TLR6 knockout (TLR6−/−) and TLR2 knockout (TLR2−/−) mice were intraperitoneally injected with 2 ml of 4% thioglycollate medium (DIFCO). Three days later, peritoneal exudate cells were isolated from the peritoneal cavity of each mouse. These cells were cultured in RPMI1640 medium (GIBCO) supplemented with 10% fetal bovine serum (GIBCO) for 2 hours at 37° C. and washed with ice-cold Hank's buffered salt solution (HBSS; GIBCO) to remove nonadherent cells. Adherent cells were used as peritoneal macrophages for the following experiments.
(§2) Responsiveness of peritoneal macrophages derived from a wild-type mouse or a TLR6 knockout mouse to lipopeptide was examined with synthetic Gram negative bacteria-derived lipopeptide JBT3002 and synthetic mycoplasma-derived lipopeptide MALP-2. Peritoneal macrophages (5×10^4 cells) of wild-type and TLR6 knockout mice prepared in Example 2 were cultured for 24 hours together with various concentrations of JBT3002 (provided by Dr. Z. Dong) or MALP-2 (provided by Dr. P. F. Muhlradt) shown in FIG. 4, and stimulated. When culture was completed, the production amounts of TNF-á (TNFá) and NO2^− (NO) in culture supernatants were measured (FIG. 4). NO2^− was measured by the Greiss method using NO2/NO3 Assay Kit (Dojindo Laboratories).

[2] = system: peritoneal macrophages; assay: NO2^− production by peritoneal macrophages stimulated with lipopeptide (Greiss method); assay type: cell-based, mouse; conditions: 24 hours, various concentrations, FIG. 4
Experimental: as §1, §2

[3] = system: NF-êB; assay: NF-êB activation in peritoneal macrophages (nucleoprotein binding to NF-êB DNA probe, electrophoresis, autoradiography); assay type: cell-based, mouse; conditions: 0.1 ng/ml JBT3002 or 0.3 ng/ml MALP-2 for 20 or 40 minutes, FIG. 5
Experimental: as §1
It is known that TLR signals activate IRAK, which is serine/threonine kinase, via an adapter molecule MyD88 and then activate MAP kinase and NF-êB (Immunity 11, 115-122, 1999). In addition, it is also known that a mycoplasma-derived lipoprotein/lipopeptide causes vital reaction via TLR2 and MyD88 signaling pathways (J. Immunol. 164, 554-557, 2000). Consequently, with wild-type, TLR6 knockout and TLR2 knockout mice, whether a bacteria-derived lipoprotein/lipopeptide activates intracellular signaling molecules was examined. Peritoneal macrophages (1×10^6 cells) of wild-type (wild-type) and TLR6 knockout (TLR6−/−) and TLR2 knockout (TLR2−/−) mice prepared in Example 2 were stimulated with 0.1 ng/ml JBT3002 or 0.3 ng/ml MALP-2 for 20 or 40 minutes, and nucleoproteins were extracted from macrophages of each mouse and incubated with a specific probe containing DNA binding site of NF-êB, then subjected to electrophoresis and visualized by autoradiography (FIG. 5).

[4] = system: peritoneal macrophages; assay: TNFá production by peritoneal macrophages in response to lipoprotein, LPS or PGN (ELISA); assay type: cell-based; conditions: macrophages from TLR6 knockout mouse (TLR6−/−) compared with wild-type; 24 hours; 10 μM lipoprotein, 100 ng/ml LPS, various concentrations of PGN; FIG. 3
Experimental: as §1
Therefore, responsiveness of TLR6 knockout mouse to these LPS, lipoprotein derived from Spirochaeta, and peptidoglycan derived from Staphylococcus aureus was examined. Peritoneal macrophages (5×10^4 cells) of wild-type and TLR6 knockout mice prepared in Example 2 were cultured for 24 hours together with 10 μM B. burgdorferi-derived lipoprotein OspA or OspC, 10 μM T. pallidum-derived lipoprotein 17-kDa (17) or 47-kDa (47), 100 ng/ml LPS, or various concentrations of peptidoglycan (PGN) shown in FIG. 3. When culture was completed, concentrations of TNFá in culture supernatants were measured by ELISA respectively.

[5] = macrophages from TLR6 knockout mouse (TLR6−/−)
[6] = macrophages from wild-type mouse

## MALP-2
[1]; [5]
  production amount of TNF-á: produced no TNF-á and NO2^−
[1]; [6]
  production amount of TNF-á: increased the production amounts of TNF-á (TNFá) and NO2^− (NO) in a manner dependent on doses
[2]; [5]
  production amount of NO2^−: produced no TNF-á and NO2^−
[2]; [6]
  production amount of NO2^−: increased the production amounts of TNF-á (TNFá) and NO2^− (NO) in a manner dependent on doses
[3]; macrophages from TLR2 knockout mouse (TLR2−/−)
  activation of NF-êB: no activation was observed
[3]; [5]
  activation of NF-êB: no activation in response to MALP-2 was observed
[3]; [6]
  activation of NF-êB: activation of NF-êB in response to the stimulation with MALP-2 or JBT3002 was observed

## OspA: B. burgdorferi-derived lipoprotein
[4]
  TNFá in culture supernatant: approximately the same amount of TNFá as macrophages derived from a wild-type mouse

## lipopolysaccharide [LPS]
[4]
  TNFá in culture supernatant: approximately the same amount of TNFá as macrophages derived from a wild-type mouse

## peptidoglycan [PGN]
[4]
  TNFá in culture supernatant: approximately the same amount of TNFá as macrophages derived from a wild-type mouse

B1: OspC: B. burgdorferi-derived lipoprotein (protein, UniProt Q07337 19-210, looked up)
Outer surface protein C: CNNSGKDGNTSANSADESVKGPNLTEISKKITDSNAVLLAVKEVEALLSSIDEIAAKAIGKKIHQNNGLDTENNHNGSLLAGAYAISTLIKQKLDGLKNEGLKEKIDAAKKCSETFTNKLKEKHTDLGKEGVTDADAKEAILKTNGTKTKGAEELGKLFESVEVLSKAAKEMLANSVKELTSPVVAESPKKP
[4]
  TNFá in culture supernatant: approximately the same amount of TNFá as macrophages derived from a wild-type mouse

Source: patent US7371921B2, “Nonhuman animal model non-responsive to mycoplasma-origin lipoprotein/lipopeptide” (Japan Science and Technology Agency, priority 2000, dated 2008)
